Test results from PubChem BioAssay AID2060895 (Molecular Pharmacology Branch, DTP, NCI, 2025).

Tested on: PDC 899932-113-R3-J6 complex spheroid viability
Assay: Anticancer human tumor 899932-113-R3-J6-PDC patient-derived melanoma cell line growth inhibition [RAS]
Conditions: for IC50: curve of first compound; for viability, T/C: stronger effect = lower value
Procedure, shortened: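 Multi-cell-type spheroids: tumor cells plus HUVEC endothelial cells and mesenchymal stem cells. RAS-pathway inhibitors were combined with targeted agents, each dosed in half-log steps down from clinical Cmax, or from 10 microM when Cmax was unknown.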
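Wherever viability, T/C is given: spheroids exposed to agents for seven days before readout; 100% = DMSO vehicle control wells.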

## Cc1nc(N2CCC3(CC2)COC(C)C3N)c(CO)nc1Sc1ccnc(N)c1Cl (configuration not stated) + C#Cc1c(F)ccc2cc(O)cc(-c3ncc4c(N5CC6CCC(C5)N6)nc(OCC56CCCN5CC(F)C6)nc4c3F)c12
Second compound 0.0316 µM
  IC50: > 10 µM
Second compound 0.1 µM
  IC50: > 10 µM
Second compound 0.316 µM
  IC50: > 10 µM
Second compound 1 µM
  IC50: > 10 µM
Second compound 3.16 µM
  IC50: > 10 µM
Second compound 10 µM
  IC50: > 10 µM
Second compound 0.0316 µM, first compound 0.0316 µM
  viability, T/C: 98.1%
Second compound 0.0316 µM, first compound 0.1 µM
  viability, T/C: 104%
Second compound 0.0316 µM, first compound 0.316 µM
  viability, T/C: 108%
Second compound 0.0316 µM, first compound 1 µM
  viability, T/C: 104%
Second compound 0.0316 µM, first compound 3.16 µM
  viability, T/C: 118%
Second compound 0.0316 µM, first compound 10 µM
  viability, T/C: 119%
Second compound 0.1 µM, first compound 0.0316 µM
  viability, T/C: 99.3%
Second compound 0.1 µM, first compound 0.1 µM
  viability, T/C: 99.1%
Second compound 0.1 µM, first compound 0.316 µM
  viability, T/C: 107%
Second compound 0.1 µM, first compound 1 µM
  viability, T/C: 103%
Second compound 0.1 µM, first compound 3.16 µM
  viability, T/C: 114%
Second compound 0.1 µM, first compound 10 µM
  viability, T/C: 123%
Second compound 0.316 µM, first compound 0.0316 µM
  viability, T/C: 111%
Second compound 0.316 µM, first compound 0.1 µM
  viability, T/C: 101%
Second compound 0.316 µM, first compound 0.316 µM
  viability, T/C: 96.3%
Second compound 0.316 µM, first compound 1 µM
  viability, T/C: 118%
Second compound 0.316 µM, first compound 3.16 µM
  viability, T/C: 117%
Second compound 0.316 µM, first compound 10 µM
  viability, T/C: 119%
Second compound 1 µM, first compound 0.0316 µM
  viability, T/C: 106%
Second compound 1 µM, first compound 0.1 µM
  viability, T/C: 109%
Second compound 1 µM, first compound 0.316 µM
  viability, T/C: 108%
Second compound 1 µM, first compound 1 µM
  viability, T/C: 113%
Second compound 1 µM, first compound 3.16 µM
  viability, T/C: 116%
Second compound 1 µM, first compound 10 µM
  viability, T/C: 122%
Second compound 3.16 µM, first compound 0.0316 µM
  viability, T/C: 126%
Second compound 3.16 µM, first compound 0.1 µM
  viability, T/C: 110%
Second compound 3.16 µM, first compound 0.316 µM
  viability, T/C: 108%
Second compound 3.16 µM, first compound 1 µM
  viability, T/C: 112%
Second compound 3.16 µM, first compound 3.16 µM
  viability, T/C: 122%
Second compound 3.16 µM, first compound 10 µM
  viability, T/C: 121%
Second compound 10 µM, first compound 0.0316 µM
  viability, T/C: 106%
Second compound 10 µM, first compound 0.1 µM
  viability, T/C: 111%
Second compound 10 µM, first compound 0.316 µM
  viability, T/C: 112%
Second compound 10 µM, first compound 1 µM
  viability, T/C: 123%
Second compound 10 µM, first compound 3.16 µM
  viability, T/C: 113%
Second compound 10 µM, first compound 10 µM
  viability, T/C: 123%
